ChEMBL document CHEMBL1201862, “PubChem BioAssay data set” (2004)
Values joined by “and” are separate entries in the source; they are usually repeats but may differ in a detail not shown here. Equal values may be shown once.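 Method: 48-hour compound exposure of cells in 96-well plates, five concentrations, linear interpolation of endpoints. The concentration for 50% growth inhibition is given as GI50.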 Active and inactive are the calls of the source. Rule as the data show it: active = GI50 up to about 1.1 µM and inactive = higher.

Experiments:
Assay in all cases: NCI tumour cell line growth inhibition, 48 h
[1] = tested on: U-251
[2] = tested on: KM12
[3] = tested on: SF-268
[4] = tested on: XF498
[5] = tested on: SNB-78
[6] = tested on: Hs-578T
[7] = tested on: MDA-MB-435
[8] = tested on: SF-295
[9] = tested on: DU-145
[10] = tested on: TK-10
[11] = tested on: 786-0
[12] = tested on: HT-29
[13] = tested on: BT-549
[14] = tested on: NCI-H226
[15] = tested on: OVCAR-5
[16] = tested on: A498
[17] = tested on: SK-MEL-2
[18] = tested on: NCI/ADR-RES
[19] = tested on: SK-MEL-5
[20] = tested on: HL-60
[21] = tested on: HCC 2998
[22] = tested on: T47D
[23] = tested on: LOX IMVI
[24] = tested on: NCI-H522
[25] = tested on: UACC-257
[26] = tested on: SK-MEL-28
[27] = tested on: Malme-3M
[28] = tested on: DLD-1
[29] = tested on: OVCAR-3
[30] = tested on: CCRF-CEM
[31] = tested on: RPMI-8226
[32] = tested on: MCF7
[33] = tested on: SF-539
[34] = tested on: HCT-15
[35] = tested on: SN12C
[36] = tested on: SNB-19
[37] = tested on: SK-OV-3
[38] = tested on: NCI-H23
[39] = tested on: LXFL 529
[40] = tested on: HOP-62
[41] = tested on: KM-20L2
[42] = tested on: OVCAR-8
[43] = tested on: A549
[44] = tested on: DMS-114
[45] = tested on: CAKI-1
[46] = tested on: RXF 393
[47] = tested on: DMS-273
[48] = tested on: HOP-92
[49] = tested on: SW-620
[50] = tested on: M14
[51] = tested on: UACC-62
[52] = tested on: K562
[53] = tested on: SR
[54] = tested on: EKVX
[55] = tested on: SNB-75
[56] = tested on: NCI-H460
[57] = tested on: HOP-18
[58] = tested on: IGROV-1
[59] = tested on: HCT-116
[60] = tested on: M19-MEL
[61] = tested on: ACHN
[62] = tested on: MDA-MB-231
[63] = tested on: UO-31
[64] = tested on: MOLT-4
[65] = tested on: OVCAR-4
[66] = tested on: COLO 205
[67] = tested on: MDA-N

## CCOc1ccc(/C(C=O)=C(\Cl)c2ccc(OC)cc2)cc1
[1]
  GI50: > 57.7 µM (inactive)
[2]
  GI50: 56.6 µM (inactive)
[3]
  GI50: > 100 µM (inactive)
[4]
  GI50: > 100 µM (inactive)
[5]
  GI50: > 100 µM (inactive)
[6]
  GI50: 34.4 µM (inactive)
[7]
  GI50: 9.4 µM (inactive)
[8]
  GI50: > 100 µM (inactive)
[9]
  GI50: > 100 µM (inactive)
[10]
  GI50: > 100 µM (inactive)
[11]
  GI50: > 100 µM (inactive)
[12]
  GI50: > 39.4 µM (inactive)
[13]
  GI50: > 100 µM (inactive)
[14]
  GI50: > 100 µM (inactive)
[15]
  GI50: > 100 µM (inactive)
[16]
  GI50: > 100 µM (inactive)
[17]
  GI50: > 100 µM (inactive)
[18]
  GI50: 77.4 µM (inactive)
[19]
  GI50: 41.7 µM (inactive)
[20]
  GI50: 14.6 µM (inactive)
[21]
  GI50: 82.6 µM (inactive)
[22]
  GI50: 24.2 µM (inactive)
[23]
  GI50: 14.2 µM (inactive)
[24]
  GI50: > 27.2 µM (inactive)
[25]
  GI50: 9.35 µM (inactive)
[26]
  GI50: > 100 µM (inactive)
[27]
  GI50: > 70.5 µM (inactive)
[28]
  GI50: > 100 µM (inactive)
[29]
  GI50: > 100 µM (inactive)
[30]
  GI50: 5.24 µM (inactive)
[31]
  GI50: 5.73 µM (inactive)
[32]
  GI50: > 100 µM (inactive)
[33]
  GI50: > 100 µM (inactive)
[34]
  GI50: 28.6 µM
[35]
  GI50: > 100 µM (inactive)
[36]
  GI50: > 91.8 µM (inactive)
[37]
  GI50: > 100 µM (inactive)
[38]
  GI50: > 100 µM (inactive)
[39]
  GI50: > 100 µM (inactive)
[40]
  GI50: 46.7 µM (inactive)
[41]
  GI50: > 100 µM (inactive)
[42]
  GI50: > 100 µM (inactive)
[43]
  GI50: 18.2 µM (inactive)
[44]
  GI50: 40.5 µM (inactive)
[45]
  GI50: > 40 µM (inactive)
[46]
  GI50: > 100 µM (inactive)
[47]
  GI50: > 100 µM (inactive)
[48]
  GI50: 69.3 µM (inactive)
[49]
  GI50: > 100 µM (inactive)
[50]
  GI50: > 73.1 µM (inactive)
[51]
  GI50: > 51.9 µM (inactive)
[52]
  GI50: 12.5 µM (inactive)
[53]
  GI50: 5.16 µM (inactive)
[54]
  GI50: > 52 µM (inactive)
[55]
  GI50: 36.6 µM (inactive)
[56]
  GI50: > 100 µM (inactive)
[57]
  GI50: 42.3 µM (inactive)
[58]
  GI50: > 100 µM (inactive)
[59]
  GI50: > 83.8 µM (inactive)
[60]
  GI50: > 100 µM (inactive)
[61]
  GI50: > 100 µM (inactive)
[62]
  GI50: > 100 µM (inactive)
[63]
  GI50: > 57.1 µM (inactive)
[64]
  GI50: 5.48 µM (inactive)
[65]
  GI50: 9.82 µM (inactive)
[66]
  GI50: > 51.5 µM (inactive)

## CN(C)CC1CCCC(CN(C)C)C1=O (centres undefined)
[1]
  GI50: 10.7 µM (inactive) and 17.9 µM (inactive)
[4]
  GI50: 2.09 µM (inactive)
[5]
  GI50: 3.5 µM (inactive)
[9]
  GI50: > 10 µM (inactive) and 15.6 µM (inactive)
[11]
  GI50: 2.32 µM (inactive) and 1.77 µM (inactive)
[15]
  GI50: 18.2 µM (inactive) and 18.3 µM (inactive)
[17]
  GI50: 8.73 µM (inactive) and 17.2 µM (inactive)
[19]
  GI50: 8.38 µM (inactive) and 16 µM (inactive)
[21]
  GI50: 13.9 µM (inactive) and 19.3 µM (inactive)
[22]
  GI50: 1.69 µM (inactive) and 1.24 µM (inactive)
[25]
  GI50: 2.34 µM (inactive) and 2.11 µM (inactive)
[28]
  GI50: 1.12 µM (active)
[29]
  GI50: 2.58 µM (inactive) and 1.95 µM (inactive)
[36]
  GI50: > 45.6 µM (inactive) and 47 µM (inactive)
[67]
  GI50: 11 µM (inactive) and 12.1 µM (inactive)
[39]
  GI50: 0.386 µM (active)
[41]
  GI50: 5.02 µM (inactive)
[42]
  GI50: 2.71 µM (inactive) and 2.98 µM (inactive)
[43]
  GI50: 24.9 µM (inactive) and 27.2 µM (inactive)
[44]
  GI50: 1.48 µM (inactive)
[46]
  GI50: 1.73 µM (inactive) and 1.26 µM (inactive)
[47]
  GI50: 10.9 µM (inactive)
[48]
  GI50: 1.91 µM (inactive) and 968 nM (active)
[49]
  GI50: 196 nM (active) and 271 nM (active)
[54]
  GI50: 5.74 µM (inactive) and 6.61 µM (inactive)
[55]
  GI50: 16.4 µM (inactive) and 13.9 µM (inactive)
[56]
  GI50: 19.8 µM (inactive) and 17.5 µM (inactive)
[57]
  GI50: 1.83 µM (inactive)
[58]
  GI50: 19.3 µM (inactive) and 18.1 µM (inactive)
[60]
  GI50: 3.65 µM (inactive)
[61]
  GI50: 1.33 µM (inactive) and 1.87 µM (inactive)
[64]
  GI50: 241 nM (active) and 450 nM (active)
[66]
  GI50: 1.67 µM (inactive) and 3.33 µM (inactive)
